Here are results for four molecules from US20240189291A1, “Prevention And Treatment Of Atrial Fibrillation/Flutter With Gamma-Ketoaldehyde Scavengers” (Vanderbilt University, priority 2016, published 2024).

Several values for one entry are separate records, joined by “and”; a condition that tells them apart may be missing. Equal values may be shown once. Entries after “also recorded” stand apart in the source; their conditions may differ. Read-outs that look alike come from different tables or passages of the source.

For series [1], the system named is atrial HL-1 cells. The series is described as follows: Cytotoxicity of ANP oligomers to atrial HL-1 cells (ATP production). In kind it is cell-based. As to conditions: peptide oligomers, 24 hr exposure; listed as ANP oligomers. As for the experimental part: Mutant ANP is highly fibrillogenic, generating cytotoxic PAOs. To compare oligomer formation between WT and mutant ANP, Western analysis was performed on peptides allowed to oligomerize at 23° C. for variable time points. […] For amyloid β1-42, oligomer toxicity is a transient, time-dependent phenomenon, in the progression from monomers to PAOs to fibrils. To investigate this process for WT and mutant ANP, peptides incubated in vitro to generate oligomers over different time periods were incubated with atrial HL-1 cells for 24 hr. For WT ANP, proteotoxicity (manifested by decreased cellular ATP production) was maximal for PAOs generated during a 2 wk incubation, while for mutant ANP, the time point of maximal oligomer cytotoxicity occurred much earlier, within ˜3 d (FIG. 14). Cytotoxicity was confirmed by measuring cellular oxygen consumption rate using extracellular flux analysis (Seahorse Bioscience XFE96). Thus, oligomers formed by both WT and mutant ANP cause atrial myocyte dysfunction, as evidenced by reduced cardiomyocyte ATP production, with proteotoxicity occurring earlier for mutant compared to WT ANP, consistent with accelerated oligomer formation.

Series [2] has as its system hypertensive (ang II) mice. The series is described as follows: Murine model of ang II-mediated hypertension with inducible AF. In kind it is in vivo. To be noted: for AF burden / AF susceptibility (total inducible AF): 2-HOBA and 4-HOBA 1G/L in drinking water. The source says: Experimental hypertension: Evidence for IsoLGs in AF susceptibility. Oxidative stress and PAO burden in human atrium are linked to HTN. […] The present inventors have determined that IsoLGs are mediators for AF susceptibility in HTN using a murine model (2 wk mini-pump infusion of angiotensin II [ang II]), in which mice develop sustained HTN and inducible AF. […] Importantly, mass spectrometry data have confirmed this finding (FIG. 5B), with a striking 100 fold increase in atrial adduct formation during HTN (2-3 fold greater increase than that seen in Alzheimer's brain). In addition, PAOs accumulated in the atria of hypertensive compared to control mice (FIGS. 5C and D). […] As expected, hypertensive mice developed inducible AF compared to control (FIG. 7). […] Normalization of BP in ang II-treated mice with hydralazine/HCTZ prevented AF susceptibility, while mechanical stretch of atrial myocytes generated both LG adducts (FIG. 9) and PAOs (not shown), signifying a critical role of atriomyocyte stretch. The AF substrate was reversible by 2 wks after stopping ang II (85% reduction in total AF burden), with partial normalization of BP (74%; n=13, data not shown). Of note, 2-HOBA had no effects on any ECG parameters in HTN mice.

Series [3] deals with mice fed a high-fat diet (HFD). Briefly: Mouse model of diet-induced obesity (DIO) with inducible AF. In kind it is in vivo. As to conditions: 12 weeks, co-treatment. The source says:
Experimental obesity: Evidence for IsoLGs in AF susceptibility. Given that obesity is also linked to inflammation and oxidative stress, we have begun studies to investigate the role of IsoLGs in a mouse model of diet-induced obesity (DIO). […] Thus, in the early stages of both HTN and obesity, the present inventors show a role for IsoLGs in the AF substrate. In both HTN and obesity, AF was inducible in the absence of fibrosis, with reversibility in HTN. These findings imply that IsoLGs constitute an early pathologic target, and that their inhibition could potentially prevent the development of AF. In the proposed studies, we will confirm the critical role of IsoLGs using rigorous experimental approaches. For these studies, we use well-characterized murine models of HTN and obesity described above and routinely employed.
The following data are for 12 week-treated animals.

Series [4] has as its system hypertensive (ang II) mice. As to conditions: ang II-mediated HTN in mice, earlier work (Kirabo and colleagues), cited from earlier work.
The conditions of series [5]: in vitro studies, in vivo studies in mice, pre-clinical toxicology studies; cited from earlier work.
Another series has as its system ROS. To be noted: cited from earlier work.
A further series deals with IsoLGs. To be noted: cited from earlier work.
The test system of series [6] is atrial HL-1 cells. Briefly: Rapid pacing of cultured atrial HL-1 cells (cellular model simulating AF). In kind it is cell-based. The source says:
Protein oligomers and IsoLGs in a cellular model simulating AF. […] Moreover, exposure of unpaced cells to a physiologic concentration of IsoLGs caused cytosolic PAO production, similar to that observed with rapid pacing (FIG. 4, top panels).

Series [7] relates to mouse model of Alzheimer's disease. To be noted: cited from earlier work.
The target in a further series is COX1 (Homo sapiens, UniProt P23219). To be noted: cited from earlier work.
The target of the next series is T1, COX2 (Homo sapiens, UniProt P35354).
T1 sequence (P35354 18-604): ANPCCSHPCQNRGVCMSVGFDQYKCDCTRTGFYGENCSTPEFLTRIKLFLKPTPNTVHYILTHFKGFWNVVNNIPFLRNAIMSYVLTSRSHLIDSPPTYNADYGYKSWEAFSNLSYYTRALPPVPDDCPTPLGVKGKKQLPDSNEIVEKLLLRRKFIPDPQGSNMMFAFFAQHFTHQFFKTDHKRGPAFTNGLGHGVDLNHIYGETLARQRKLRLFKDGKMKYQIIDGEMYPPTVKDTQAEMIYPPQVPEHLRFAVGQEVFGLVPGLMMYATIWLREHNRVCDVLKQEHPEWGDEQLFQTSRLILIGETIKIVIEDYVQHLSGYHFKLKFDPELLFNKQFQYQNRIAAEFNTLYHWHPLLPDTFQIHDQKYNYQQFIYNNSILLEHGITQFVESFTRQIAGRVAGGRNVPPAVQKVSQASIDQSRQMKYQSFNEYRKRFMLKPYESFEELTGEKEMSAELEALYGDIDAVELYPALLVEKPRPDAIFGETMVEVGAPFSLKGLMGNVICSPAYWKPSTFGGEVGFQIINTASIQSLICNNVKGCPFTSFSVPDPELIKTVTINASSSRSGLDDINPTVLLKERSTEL
To be noted: cited from earlier work.

The mark [8] stands for this setting: ang II-treated hypertensive mice.
Setting [9] is: rapidly paced atrial HL-1 cells in presence of compound.
Setting [10] is: ang II-treated hypertensive mice, 1G/L in drinking water.

COX1, sequence (P23219 24-599): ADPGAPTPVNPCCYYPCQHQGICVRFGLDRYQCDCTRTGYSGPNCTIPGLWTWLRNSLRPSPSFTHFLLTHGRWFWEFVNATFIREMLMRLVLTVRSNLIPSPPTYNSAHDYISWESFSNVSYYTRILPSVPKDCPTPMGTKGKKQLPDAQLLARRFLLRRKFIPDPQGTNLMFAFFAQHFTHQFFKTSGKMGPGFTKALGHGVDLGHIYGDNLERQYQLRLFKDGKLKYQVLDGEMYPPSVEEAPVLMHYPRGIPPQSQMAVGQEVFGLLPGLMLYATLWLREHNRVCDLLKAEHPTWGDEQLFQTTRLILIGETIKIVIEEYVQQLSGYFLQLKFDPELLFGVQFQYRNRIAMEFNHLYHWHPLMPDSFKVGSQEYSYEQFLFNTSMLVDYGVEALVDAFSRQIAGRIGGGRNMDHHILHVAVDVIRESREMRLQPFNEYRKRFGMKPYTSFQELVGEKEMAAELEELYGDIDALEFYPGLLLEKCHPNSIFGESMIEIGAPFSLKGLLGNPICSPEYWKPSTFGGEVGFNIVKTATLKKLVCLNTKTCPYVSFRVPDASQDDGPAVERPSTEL

As for “WT ANP: wild-type atrial natriuretic peptide (28 amino acids), incubated to form oligomers”, the “cytotoxicity (ATP production by atrial HL-1 cells)” value in the series on atrial HL-1 cells [1] was “reduced ATP production; also recorded: cytotoxic”.

As to “hydralazine/hydrocholorothiazide [hydralazine/HCTZ, reference compound]”, the “AF burden / AF susceptibility (total inducible AF)” value (from here on “AF burden / AF susceptibility”) in [2] (setting [8]) was “prevented”. Besides, the “blood pressure (BP)” value in series [2] (ang II-treated mice) is reported as “Normalization”.

As to `NCc1ccccc1O` [2-HOBA, 2-hydroxybenzylamine], the “AF burden (total inducible AF)” value in series [3] was “suppressed and markedly suppressed and 2-HOBA reduces”. For the same molecule, the “blood pressure / antihypertensive effect” value in series [4] is “effectively lowered; also recorded: prominent antihypertensive effect”. Moreover, the “blood pressure / antihypertensive effect” value in series [4] (listed as salicylamine) is “remarkable therapeutic benefit”. The safety profile result in series [5] was “excellent safety profile”. Moreover, the ROS levels result in the series with ROS was “does not reduce ROS levels significantly”. Further, the “concentrations of O2·− or F2-Isoprostanes” value in the series on ROS (during in vitro oxidation) is “do not affect”. For the same molecule, in the series on IsoLGs, the dicarbonyl scavenging activity result was “can also scavenge other injurious lipid dicarbonyl compounds such as MDA” and the “rate of reaction with IsoLGs compared to IsoLG binding to the ε-amine of lysine” value is recorded as “much more rapid rate (by several orders of magnitude)”. Besides, in the series with atrial HL-1 cells [6] (setting [9]), the PAO formation result is “virtually eliminated and 2-HOBA prevents”; the “myocyte stress response (transcriptional upregulation of Nppb and Hspa1a)” value is listed as “blunted”. In addition, in the series on atrial HL-1 cells [6] (rapidly-beating atrial cell model), the isoLG adducts was 2-HOBA prevents. For the same molecule, the ECG parameters entry in series [2] (HTN mice) is given as “no effects”. In series [2] (setting [10]), the “atrial IsoLG adducts” value was “prevents and markedly reduced and 2-HOBA reduces”; the “atrial PAO formation” value was “prevents and markedly reduced and 2-HOBA reduces”. Moreover, the “AF burden / AF susceptibility” value in [2] (setting [8]) was “suppressed and markedly reduced and 2-HOBA reduces”. Moreover, in [7], the “development of cognitive impairment / therapeutic benefit” value was “prevent”. In addition, the “development of cognitive impairment / therapeutic benefit” value in series [7] (listed as salicylamine) was “remarkable therapeutic benefit”. Besides, the “inhibition of COX1 enzyme” value at COX1 is listed as “does not inhibit”. Moreover, at COX2, the “inhibition of COX2 enzyme” value is “does not inhibit”.

As to `NCc1ccc(O)cc1` [4-HOBA, reference compound], the “AF burden (total inducible AF)” value in series [3] is “had no effect; also recorded: did not”. Besides, the dicarbonyl scavenging activity result in the series with IsoLGs is listed as “cannot scavenge dicarbonyls”. Also, in series [2] (setting [8]), the “AF burden / AF susceptibility” value is given as “had no effect”.
